Where “and” joins values, the source holds several entries; their conditions need not be identical. Equal values may be shown once.
What was measured:
NCIH1944 = assay: Combinatorial activity in LUAD cell line NCIH1944; type: cell-based; conditions: Homo sapiens, NCI-H1944; NCIH1944, KRAS G13D; single agent; read-out: (nM) s.a.
Protocol: (§1) Combinatorial activity of PF-07104091 and PF-07220060 was assessed in LUADs as single agents (s.a.) or in combination.

ST941 PBR PDX model [1] = assay: In vivo efficacy, palbociclib-resistant ST941 PBR PDX model (Example 4); set-up: species or system NSG mice; conditions: ST941PBR, Day 28; PO BID: PF-07104091 120 mpk, PF-07220060 60 mpk, PF-06873600 30 mpk, palbociclib 10 mpk; fulvestrant 10 mpk SC
Protocol: (§2) Female NSG mice (Jackson Lab) were subcutaneously implanted with fragment (27 mm^3 to 64 mm^3 size) into the dorsal region. All mice for HCC1428, MCF7 and ST941 PBR studies were supplemented with 8.5 μg/mL estradiol water (β-Estradiol Sigma-Aldrich, cat #E2758-5G) and gave ad libitum till end of study. For the in vivo efficacy studies, tumor volume and body weights were measured twice a week. Tumor volume was calculated using the [(Length×Width×Width)/2)] formula. TGI was calculated as 100*(1−ΔT/ΔC). The ΔC (ΔT) was obtained by subtracting the mean tumor burden in the vehicle (treated) group on the first day of treatment (Day 0) from the mean tumor burden in vehicle (treated) group on the assessment day. Statistical analysis was performed using ANCOVA when the mean tumor volume in vehicle treated mice reached tumor cutoff size.
(§3) We established model in house by continuous treatment of the ST941 PBR tumor bearing mice with PD-0332991 at 50 mg/kg, PO QD plus fulvestrant at 10 mg/kg, SC twice in the first week, then weekly thereafter. To propagate donors for the TGI study, tumors were transplanted to recipient mice. One week after the re-implantation, the recipient mice received continuous treatment with palbociclib plus fulvestrant (dosing schedule described above). After 1 to 2 serial in vivo propagation with the same treatment regimen, the resistant tumors in the range of 700 to 800 mm^3 were re-implanted for a study expansion. The remaining tumor fragments were viably frozen for future use.
The live donor mice were established by implanting ST941 PBR (p13) tumor fragments. Once reaching a range of 700 to 800 mm^3, the donor tumors were subsequently transplanted into secondary recipient mice for a study expansion. To maintain the resistant clones, the ST941 PBR tumor bearing mice were treated with PD-0332991 at 50 mg/kg, PO. QD plus fulvestrant at 10 mg/kg, SC twice in the first week, then weekly afterwards for 10 weeks. The treatment was initiated one week after the implant until day of randomization for study enrollment. […] PF-07104091 (lot 021), PF-07220060 (lot CPo126812-01-SY-5700-01), PF-06873600 (lot 022) and PD-0332991 (lot GR08498) were administered (PO) BID (7 hr apart) while fulvestrant (lot 20160224-2) at 10 mg/kg, SC twice in the first week, then weekly afterwards. All mice received treatment continuously until Day 28. TGI was assessed on Day 28 post first dose.

A549 = assay: Combinatorial activity in LUAD cell line A549; type: cell-based; conditions: Homo sapiens; A549, WT; single agent; read-out: (nM) s.a.
Protocol: as §1

[2] = system: HCC1428 breast cancer model; assay: In vivo efficacy, HR+/HER2− HCC1428 breast cancer model (Example 3); set-up: species or system NSG mice; conditions: HCC1428, Day 42; PO BID: PF-07104091 150 mpk, PF-07220060 60 mpk, palbociclib 10 mpk
Protocol: as §2, with “T47D, HCC1428” for “HCC1428, MCF7”
The HCC1428 model was established by implanting passage 4 tumor fragments into recipient mice. To establish the HCC1428 donor mice, tumor cells (5×10^6 cell/mouse with 50% Cultrex® Basement Membrane Matrix) were subcutaneously implanted in female NSG mice. Once reaching a range of 700 to 800 mm^3, donor tumors were subsequently transplanted into secondary recipient mice for a study expansion. […] PF-07104091 (lot 016), PF-07220060 (lot 019) and PD-0332991 (lot GR08498) were administered (PO.) BID (7 hr apart). All mice received treatment continuously until Day 42. TGI was assessed on Day 42 post first dose.

A427 = assay: Combinatorial activity in LUAD cell line A427; type: cell-based; conditions: Homo sapiens, A-427; A427, KRAS G12D; single agent; read-out: (nM) s.a.
Protocol: as §1

ST941 PBR PDX model [3] = assay: In vivo efficacy, palbociclib-resistant ST941 PBR PDX model (Example 3); set-up: species or system NSG mice; conditions: ST941PBR, Day 28; PO BID: PF-07104091 150 mpk, PF-07220060 60 mpk, palbociclib 10 mpk; fulvestrant 10 mpk SC 2x week 1 then weekly
Protocol: as §2, with “T47D, HCC1428” for “HCC1428, MCF7”
as §3
The live donor mice were established by implanting ST941 PBR (p11) tumor fragments. Once reaching a range of 700 to 800 mm^3, the donor tumors were subsequently transplanted into secondary recipient mice for a study expansion. To maintain the resistant clones, the ST941 PBR tumor bearing mice were treated with PD-0332991 at 50 mg/kg, PO. QD plus fulvestrant at 10 mg/kg, SC twice in the first week, then weekly afterwards for 10 weeks. The treatment was initiated one week after the implant until day of randomization for study enrollment. […] TGI was assessed on Day 28 post first dose.

H1792 = assay: Combinatorial activity in LUAD cell line H1792; type: cell-based; conditions: Homo sapiens, NCI-H1792; H1792, KRAS G12C; single agent; read-out: (nM) s.a.
Protocol: as §1

SW1573 = assay: Combinatorial activity in LUAD cell line SW1573; type: cell-based; conditions: Homo sapiens; SW1573, KRAS G12C; single agent; read-out: (nM) s.a.
Protocol: as §1

Row | SMILES | IC50 (NCIH1944) [nM] | TGI % (ST941 PBR PDX model [1]) [%] | IC50 (A549) [nM] | TGI % [2] [%] | IC50 (A427) [nM] | TGI % (ST941 PBR PDX model [3]) | IC50 (H1792) [nM] | IC50 (SW1573) [nM]
1 | COCc1cc(C(=O)Nc2cc([C@H]3CC[C@@H](OC(=O)NC(C)C)C3)[nH]n2)n(C)n1 [PF-07104091, (1R,3S)-3-[3-({[3-(methoxymethyl)-1-methyl-1H-pyrazol-5-yl]carbonyl}amino)-1H-pyrazol-5-yl]cyclopentyl propan-2-ylcarbamate] | 227 | 36 | 574 | 95 | 276 | 34% and 24^* % |  | 
2 | CC(C)n1c(C(C)(C)O)nc2c(F)cc(-c3nc(N[C@@H]4CCOC[C@H]4O)ncc3Cl)cc21 [PF-07220060, 1,5-anhydro-3-({5-chloro-4-[4-fluoro-2-(2-hydroxypropan-2-yl)-1-(propan-2-yl)-1H-benzimidazol-6-yl]pyrimidin-2-yl}amino)-2,3-dideoxy-D-threo-pentitol] | 398 | 19 | 814 | 89 | 124 | 28% | 210 | > 1000
